{"source": "patent US5075288A", "about": "“Somnogenic fragment of interleukin-1β” (The University of Tennessee Research Corporation, priority 1990, dated 1991)", "key": {"[1]": {"system": "Murine D10 Cells", "test": "T cell proliferation assay, [3H] thymidine incorporation in murine T cell line D10", "type": "cell-based, mouse", "experimental": "Thymus glands were removed from 6-10 week old CD1 mice after mice had been sacrificed by cervical dislocation. Thymocytes were isolated by gently homogenizing the thymus glands in a dounce homogenizer. Thymocytes were suspended in RPMI 1640 containing 7.5% FCS and 5×10-^6 M 2-mercaptoethanol. Aliquots of the cell suspension (100 μl) were dispensed into wells of flat bottom microtiter plates (Linbro Plastics), and samples (50 μl) suspended in RPMI 1640 were added to appropriate wells. Plates were incubated at 37° C., 5% CO2, in a humidified atmosphere for 60 h, and wells were pulsed with [^3 H] thymidine (1 μCi, […]) for 12h. After the 12-h pulse, cells were harvested onto paper filter pads with a multiple-sample harvester, and thymocyte proliferation was determined by scintillation counting. In some experiments, the murine T cell line D10 was used instead of thymocytes as target cells using phytohemmagglutinin (1 μg/ml) as costimulant."}, "[2]": {"system": "male, New Zealand white pasteurella-free rabbits", "test": "Rabbit sleep (EEG) and body temperature after ICV injection", "type": "in vivo", "conditions": "for Colonic Temperature Start: at the time of injection; for Colonic Temperature End: end of 6-h recording session; for NREMS / REMS: six-hour recording period", "excerpt": "A lateral cerebral ventricular guide cannula, a thermistor, and stainless steel screw electroencephalographic (EEG) electrodes were surgically implanted into male, New Zealand white pasteurella-free rabbits (about 3.5 kg). EEG electrodes were placed over the frontal and parietal cortices A 50,000 ohm calibrated thermistor (Model 4018, Omega Engineering, Stamford, Conn.) was implanted over the parietal cortex to measure brain temperature (Tbr). Insulated leads from the screws and the thermistor were routed to an amphenol plug attached to the skull with dental acrylic (DUZ-ALL, Coralite Dental Products, Skokie, Ill.). The guide cannula was placed in the left lateral cerebral ventricle. A minimum of two weeks was allowed for recovery before the animals were habituated to the recording chambers (Hotpack 352600, Philadelphia, Pa.). Food and water were available ad libitum. Each recording chamber contained an electronic swivel (Stoelting, Chicago, Ill.) suspended by a shock-absorbing system. A flexible tether connected the swivel to the Amphenol connector on the rabbit's head, thus allowing freedom of movement. An accelerometer (Grass, SPAI, Quincy, Mass.) attached to the shock-absorbing system provided an indication of body movement. The cables from the swivel and the accelerometer were connected to Grass 7D polygraphs in an adjacent room. The polygraphs recorded EEG, Tbr, and body movement for each animal. The EEG for each rabbit was passed through band-pass filters with the 0.5-3.5 Hz (delta), 4.0-7.5 Hz (theta), 8.0-12.5 Hz (alpha), and 13.0-15.0 Hz (beta) frequency bands rectified and averaged for 1-min intervals by a Buxco model 24/32 data logger (Buxco Electronics, Sharon, Conn.). These values for 1-min periods were used to compute hourly averages. EEG amplitudes in the delta frequency band during 1-min epochs of NREMS for each of the six postinjection hours were also determined. The 10 samples of greatest magnitude in each hour were averaged for each rabbit during control and test NREM sleep periods. […] Tbr S were also recorded using a data logger (Acrosystems 400, Beverly, Mass.), with values for each rabbit sampled at 10-min intervals. NREM sleep and REM sleep were measured as a percent of time over a six-hour recording period. Colonic temperatures (Tco) were taken with a flexible thermistor (YSI, Inc., Yellow Springs, Ohio) at the time of injection and at the end of 6-h recording session. IL1 fragments were dissolved in appropriate volumes of artificial cerebrospinal fluid (aCSF) (2 mM KC1, 1.15 mM CaCl2, and 0.96 mM MgCl2 in pyrogen free saline, […] NaCl [Abbott, N. Chicago, Ill.] Hu-rIL1β was supplied in phosphate-buffered saline (PBS) (0.4 mg/ml). All substances were injected into a lateral cerebral ventricle (ICV). Injection volumes were 12-25 μl per rabbit; each injection lasted about 2 min. Animals were injected between 0900 and 1000 h. Control recordings were obtained from each animal after injection of vehicle (aCSF). After injections, animals were recorded from the next 6 h. Data from all experiments were analyzed with the SPSS^x Information System. Friedman's test for k-related samples was used to test for differences across the 6-h recording periods. If significant differences were indicated, the Wilcoxon matched-pairs signed-ranks test was used to identify the specific hours in which the differences occurred. An alpha level of P<0.05 was accepted as indicating significance."}}, "note": "Entries after “also recorded” stand apart in the source; their conditions may differ. Residues, ends and D or L forms follow the SMILES beside them."}
{"compound": "199-228: synthetic fragment of IL1β, amino acids 199-228 (ESVDPKNYPKKKMEKRFVFNKIEINNKLEF; UniProt P01584 199-228, looked up, fragment) [Peptide 199-228]", "values": [{"measurement": "T cell proliferation (in words)", "setting": "[1]; murine D10 cells (Table 2)", "result": "stimulated T cell proliferation"}, {"measurement": "[3H] Thymidine Incorporation, Murine D10 Cells", "setting": "[1]; standard deviation in, phytohemmagglutinin 1 μg/ml as costimulant", "result": "2799 (652) counts per minute"}, {"measurement": "Colonic Temperature Start", "setting": "[2]; 25 μg ICV", "result": "39.3 (0.1) °C"}, {"measurement": "Colonic Temperature End", "setting": "[2]; 25 μg ICV", "result": "39.4 (0.1) °C"}, {"measurement": "NREMS", "setting": "[2]; 25 μg ICV", "result": "50.9 (3.9) percent of time"}, {"measurement": "REMS", "setting": "[2]; 25 μg ICV", "result": "20.0 (1.2) percent of time"}, {"measurement": "somnogenic and pyrogenic activity: effect on sleep or Tbr (in words)", "setting": "[2]; ICV, doses of Table 3", "result": "failed to alter sleep or Tbr"}]}
{"compound": "CC[C@H](C)[C@H](NC(=O)[C@H](CCC(=O)O)NC(=O)[C@@H](NC(=O)[C@H](CCCCN)NC(=O)[C@H](CC(N)=O)NC(=O)[C@H](Cc1ccccc1)NC(=O)[C@@H](NC(=O)[C@H](Cc1ccccc1)NC(=O)[C@H](CCCNC(=N)N)NC(=O)[C@H](CCCCN)NC(=O)[C@H](CCC(=O)O)NC(=O)[C@H](CCSC)NC(=O)[C@H](CCCCN)NC(=O)[C@H](CCCCN)NC(=O)[C@@H](N)CCCCN)C(C)C)[C@@H](C)CC)C(=O)N[C@@H](CC(N)=O)C(=O)N[C@@H](CC(N)=O)C(=O)N[C@@H](CCCCN)C(=O)N[C@@H](CC(C)C)C(=O)N[C@@H](CCC(=O)O)C(=O)N[C@@H](Cc1ccccc1)C(=O)N[C@@H](CCC(=O)O)C(=O)N[C@@H](CO)C(=O)N[C@@H](C)C(=O)N[C@@H](CCC(N)=O)C(=O)N[C@@H](Cc1ccccc1)C(=O)N1CCC[C@H]1C(=O)N[C@@H](CC(N)=O)C(=O)N[C@@H](Cc1c[nH]c2ccccc12)C(=O)N[C@@H](Cc1ccc(O)cc1)C(=O)N[C@H](C(=O)N[C@@H](CO)C(=O)N[C@H](C(=O)O)[C@@H](C)O)[C@@H](C)CC", "note": "[Peptide 208-240] (H-KKKMEKRFVFNKIEINNKLEFESAQFPNWYIST-OH)", "values": [{"measurement": "abnormal behavior after injection", "setting": "[2]; 25 μg ICV", "result": "no appearance of abnormal behavior; also recorded: did not appear to induce abnormal behavior"}]}
{"compound": "IL1β: Recombinant human IL1β prepared by Cistron Biotechnology, Incorporated", "values": [{"measurement": "Colonic Temperature Start", "setting": "[2]; 5 ng ICV", "result": "39.2 (0.0) °C"}, {"measurement": "Colonic Temperature End", "setting": "[2]; 5 ng ICV", "result": "40.0 (0.1) °C"}, {"measurement": "NREMS", "setting": "[2]; 5 ng ICV", "result": "53.3 (3.2) percent of time"}, {"measurement": "REMS", "setting": "[2]; 5 ng ICV", "result": "4.4 (0.8) percent of time"}, {"measurement": "Colonic Temperature Start", "setting": "[2]; 20 ng ICV", "result": "39.3 (0.1) °C"}, {"measurement": "Colonic Temperature End", "setting": "[2]; 20 ng ICV", "result": "41.0 (0.3) °C"}, {"measurement": "NREMS", "setting": "[2]; 20 ng ICV", "result": "61.5 (4.3) percent of time"}, {"measurement": "REMS", "setting": "[2]; 20 ng ICV", "result": "2.1 (0.6) percent of time"}]}
